Design: species or system White New Zealand male rabbits
Conditions: rabbit, in vivo, sc, 18 mg/kg
Experimental: The study was performed in 6 White New Zealand male rabbits (body weight: 3.63±0.17 kg; min-max 3.47-3.88 kg) and included MS1 and MS2 loaded at 40 mg/mL of teicoplanin (Sigma, T-0578).
Briefly, teicoplanin was reconstituted in water for injection at the concentration of […] (100 mL). Sterile dry beads (≈6 mL in 5% glucose) were hydrated/loaded in the teicoplanin solution (20 mL) with continuous agitation on rotating wheel (≈30 rpm). After 20 min, the supernatant was retrieved and kept for drug quantification. Microspheres (MS1 and MS2) were then washed in water, and kept on shell until the time of administration. At the time of injection, MS were suspended in saline and the appropriate volume of bead (≈4 mL) suspension was sampled for injection at a ratio of 2:1 MS/saline (Table 7). Each microsphere was administered once subcutaneously at the same dose of drug at two injection sites to 2 animals. Teicoplanin control (Sigma, T-0578) was administered once in one animal and repeated daily in another animal. […]
A vascular access was gained in the auricular artery for blood sampling and in auricular vein for perfusion. […] The lowest limit of quantification of the method (LOQ) is 2.0 mg/L. The results of plasmatic assay of teicoplanin are reported in table 8 and in FIG. 7.

Question: With teicoplanin [Injectable teicoplanin] as the substance, how does the Teicoplanin serum concentration read?
Answer: The Teicoplanin serum concentration was less than 2.0 mg/L.
